Calls of active or inactive are those of the source. The rule behind the calls is not given here.

The subject of data set [1] is Human alphaherpesvirus 1. Nature of the data set: Antiviral activity against Herpes simplex virus-1 strain F infected in African green monkey Vero cells assessed as late protein gb level at 50 ug/ml after 48 hrs by immunostaining based luminescent microscopic method (reference value: 95.6%). It is filed as functional.
Data set [2] deals with HCT-116. Description: Cytotoxicity against human HCT116 cells assessed as reduction in cell viability by MTT assay. It is filed as cell-based. In general terms: Formazan colour is commonly taken as a measure of viable cells.
The test system of data set [3] is MCF-10A. Description: Cytotoxicity against human MCF10A cells assessed as reduction in cell viability by MTT assay. It is filed as cell-based.
In data set [4] the test system is MCF7. Nature of the data set: Cytotoxicity against human MCF7 cells assessed as reduction in cell viability by MTT assay. It is filed as cell-based.
Data set [5] can be described thus: Cytotoxicity against human […] cells assessed as reduction in cell viability by MTT assay. Format: cell-based.
Data set [6] in a line: Drug uptake in human U251 cell nucleus treated at 10 to 20 uM after 20 to 40 hrs by fluorescent microscopic method. Format: ADME, subcellular. Conditions: u-251, 20 µM.
Data set [7] deals with Calf thymus DNA. Description: Binding affinity to calf thymus DNA at 0.95 uM by fluorescence spectral analysis. It is filed as nucleic-acid assay. Conditions: Bos taurus.
Data set [8] has as its system Human alphaherpesvirus 1. Nature of the data set: Antiviral activity against Herpes simplex virus-1 infected in cells. Format: functional, organism-based.
In data set [9] the test system is Calf thymus DNA. Nature of the data set: Binding affinity to calf thymus DNA assessed as bathochromic shift at 2.38 x 10^-6M by absorption spectral analysis. Conditions: Bos taurus. Format: nucleic-acid assay.
For data set [10], the system named is DNA. Nature of the data set: Binding affinity to Escherichia coli supercoiled pHOT1 DNA assessed as inhibition of topoisomerase-1-mediated relaxation of supercoiled DNA at 2.5 to 20 uM after 30 mins by agarose gel electrophoresis method. It is filed as nucleic-acid assay.
Data set [11] deals with Calf thymus DNA. Nature of the data set: Binding affinity to calf thymus DNA groove using DNA cholesteric liquid crystal dispersions assessed as positive band appearance at 0.47 to 4.73 uM by CD spectral analysis. Format: nucleic-acid assay. The following applies: Bos taurus.
Data set [12] has as its system Calf thymus DNA. Nature of the data set: Binding affinity to calf thymus DNA assessed as hypochromic shift at 2.38 x 10^-6M by absorption spectral analysis. Conditions: Bos taurus. Format: nucleic-acid assay.
Data set [13] concerns Calf thymus DNA. Description: Binding affinity to calf thymus DNA groove using DNA cholesteric liquid crystal dispersions assessed as positive band appearance at 1.1 to 5.45 uM by CD spectral analysis. It is filed as nucleic-acid assay. The following applies: Bos taurus.
Data set [14] deals with Calf thymus DNA. Nature of the data set: Binding affinity to calf thymus DNA assessed as hypochromic shift at 4.4 x 10^-6M by absorption spectral analysis. Format: nucleic-acid assay. Conditions: Bos taurus.
The test system of data set [15] is Calf thymus DNA. Nature of the data set: Binding affinity to calf thymus DNA assessed as bathochromic shift at 4.4 x 10^-6M by absorption spectral analysis. The following applies: Bos taurus. Format: nucleic-acid assay.
For data set [16], the system named is Calf thymus DNA. Description: Binding affinity to calf thymus DNA at 1 uM by fluorescence spectral analysis. It is filed as nucleic-acid assay. Conditions: Bos taurus.
Data set [17] has as its system DNA. Nature of the data set: Binding affinity to Escherichia coli supercoiled pHOT1 DNA assessed as inhibition of topoisomerase-1-mediated relaxation of supercoiled DNA at 10 uM after 30 mins by agarose gel electrophoresis method. It is filed as nucleic-acid assay.
In data set [18] the test system is Cytomegalovirus. Nature of the data set: Antiviral activity against CMV infected in cells. Format: functional, organism-based.
Data set [19] has as its target Human immunodeficiency virus type 1 integrase (Human immunodeficiency virus 1, UniProt Q7ZJM1). Nature of the data set: Inhibition of HIV1 integrase.

Chain of Human immunodeficiency virus type 1 integrase (Q7ZJM1 whole entry): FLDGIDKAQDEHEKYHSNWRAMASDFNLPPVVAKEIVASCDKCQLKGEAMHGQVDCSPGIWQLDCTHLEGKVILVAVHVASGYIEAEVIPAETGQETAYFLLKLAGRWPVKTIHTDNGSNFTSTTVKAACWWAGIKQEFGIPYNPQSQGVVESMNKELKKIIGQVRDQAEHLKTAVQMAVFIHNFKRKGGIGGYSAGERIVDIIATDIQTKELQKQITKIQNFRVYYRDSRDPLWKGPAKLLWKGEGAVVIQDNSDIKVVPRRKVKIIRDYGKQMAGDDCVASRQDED

On to `Nc1nc2c(ncn2COCCO)c(=O)[nH]1` [ACYCLOVIR], for which the Activity in data set [1] is 0.1%.

What is called IC50 is the point on the concentration scale where inhibition reaches its midpoint. Turning to `CN1CCN(c2ccc3nc(-c4ccc5nc(CNC(=O)CCCCC(=O)NCc6nc7ccc(-c8nc9ccc(N%10CCN(C)CC%10)cc9[nH]8)cc7[nH]6)[nH]c5c4)[nH]c3c2)CC1`, the IC50 in [2], in data set [3], in [4] and in [5] was 20 to 90 µM in each case.

In the case of `CN1CCN(c2ccc3nc(-c4ccc5nc(CNC(=O)CCCCCCCCC(=O)NCc6nc7ccc(-c8nc9ccc(N%10CCN(C)CC%10)cc9[nH]8)cc7[nH]6)[nH]c5c4)[nH]c3c2)CC1`, the IC50 in data set [2], in data set [3], in data set [4] and in [5] was 20 to 90 µM in each case.

As to `CN(C)CCCNC(=O)c1ccc2nc(-c3ccc4nc(CNC(=O)CCCCCCCC(=O)NCc5nc6ccc(-c7nc8ccc(C(=O)NCCCN(C)C)cc8[nH]7)cc6[nH]5)[nH]c4c3)[nH]c2c1`, the Activity in data set [1] was 10%. The IC50 in [2], in [3], in data set [4] and in data set [5] was greater than 240 µM throughout. Besides, the Drug uptake result in [6] is reported as “Active”. The outcome in [7], in data set [8], in data set [9], in data set [11] and in [12] was Active. For the same molecule, in data set [10], the inhibition result was “Active”.

Consider `CN1CCN(c2ccc3nc(-c4ccc5nc(CNC(=O)CCCCCCCCCCC(=O)NCc6nc7ccc(-c8nc9ccc(N%10CCN(C)CC%10)cc9[nH]8)cc7[nH]6)[nH]c5c4)[nH]c3c2)CC1`, for which the IC50 in data set [2], in data set [3], in data set [4] and in [5] was 20 to 90 µM in each case.

Regarding `CN(C)CCCNC(=O)c1ccc2nc(-c3ccc4nc(CNC(=O)CCCCCC(=O)NCc5nc6ccc(-c7nc8ccc(C(=O)NCCCN(C)C)cc8[nH]7)cc6[nH]5)[nH]c4c3)[nH]c2c1`, the result in data set [13], in data set [14], in data set [15] and in [16] was Active. The concentration for half-maximal inhibition (IC50) in data set [2], in data set [3], in data set [4] and in [5] was greater than 240 µM throughout. The Drug uptake result in [6] is recorded as “Active”. Further, the inhibition result in data set [10] was “Active”.

On to `CN1CCN(c2ccc3nc(-c4ccc5nc(CNC(=O)CCCCCCCCCCCCC(=O)NCc6nc7ccc(-c8nc9ccc(N%10CCN(C)CC%10)cc9[nH]8)cc7[nH]6)[nH]c5c4)[nH]c3c2)CC1`, for which the IC50 in data set [2], in [3], in data set [4] and in data set [5] was 20 to 90 µM in each case.

As for `CN(C)CCCNC(=O)c1ccc2nc(-c3ccc4nc(CNC(=O)CCCCCCCCCC(=O)NCc5nc6ccc(-c7nc8ccc(C(=O)NCCCN(C)C)cc8[nH]7)cc6[nH]5)[nH]c4c3)[nH]c2c1`, the IC50 in data set [2], in [3], in data set [4] and in [5] was greater than 240 µM each time. For the same molecule, in data set [6], the Drug uptake result is reported as “Active”. In addition, the inhibition result in data set [10] was “Active”.

Regarding `CN1CCN(c2ccc3nc(-c4ccc5nc(CNC(=O)CCC(=O)NCc6nc7ccc(-c8nc9ccc(N%10CCN(C)CC%10)cc9[nH]8)cc7[nH]6)[nH]c5c4)[nH]c3c2)CC1`, the IC50 in [2], in data set [3], in data set [4] and in [5] was 20 to 90 µM throughout.

For the molecule `CN1CCN(c2ccc3nc(-c4ccc5nc(CNC(=O)CCCCCC(=O)NCc6nc7ccc(-c8nc9ccc(N%10CCN(C)CC%10)cc9[nH]8)cc7[nH]6)[nH]c5c4)[nH]c3c2)CC1`, the IC50 in data set [2], in data set [3], in data set [4] and in data set [5] was 20 to 90 µM in each case. Also, the inhibition result in [10] is “Active”.

In the case of `CN1CCN(c2ccc3nc(-c4ccc5nc(CNC(=O)CCCCCCCC(=O)NCc6nc7ccc(-c8nc9ccc(N%10CCN(C)CC%10)cc9[nH]8)cc7[nH]6)[nH]c5c4)[nH]c3c2)CC1`, the IC50 in data set [2], in [3], in data set [4] and in [5] was 20 to 90 µM throughout. For the same molecule, the inhibition result in data set [10] was “Active”.

`CN1CCN(c2ccc3nc(-c4ccc5nc(CNC(=O)CCCC(=O)NCc6nc7ccc(-c8nc9ccc(N%10CCN(C)CC%10)cc9[nH]8)cc7[nH]6)[nH]c5c4)[nH]c3c2)CC1`: the IC50 in [2], in data set [3], in data set [4] and in data set [5] was 20 to 90 µM each time. In addition, the inhibition result in data set [17] is “Active”.

Take `CN1CCN(c2ccc3nc(-c4ccc5nc(CNC(=O)CCCCCCCCCCCC(=O)NCc6nc7ccc(-c8nc9ccc(N%10CCN(C)CC%10)cc9[nH]8)cc7[nH]6)[nH]c5c4)[nH]c3c2)CC1`: the IC50 in data set [2], in data set [3], in [4] and in data set [5] was 20 to 90 µM in each case.

Regarding `CN1CCN(c2ccc3nc(-c4ccc5nc(CNC(=O)CC(=O)NCc6nc7ccc(-c8nc9ccc(N%10CCN(C)CC%10)cc9[nH]8)cc7[nH]6)[nH]c5c4)[nH]c3c2)CC1`, the IC50 in [2], in data set [3], in [4] and in data set [5] was 20 to 90 µM each time. In data set [10], the inhibition result is “Active”.

With `CN1CCN(c2ccc3nc(-c4ccc5nc(CNC(=O)CCCCCCCCCC(=O)NCc6nc7ccc(-c8nc9ccc(N%10CCN(C)CC%10)cc9[nH]8)cc7[nH]6)[nH]c5c4)[nH]c3c2)CC1`, the IC50 in [2], in [3], in data set [4] and in data set [5] was 20 to 90 µM each time.

For the molecule `CN(C)CCCNC(=O)c1ccc2nc(-c3ccc4nc(CNC(=O)CC(=O)NCc5nc6ccc(-c7nc8ccc(C(=O)NCCCN(C)C)cc8[nH]7)cc6[nH]5)[nH]c4c3)[nH]c2c1`, the IC50 in data set [2], in [3], in data set [4] and in [5] was greater than 240 µM each time. Moreover, the result in data set [8] was Active. Also, the inhibition result in data set [10] was “Active”.

In the case of `CN1CCN(c2ccc3nc(-c4ccc5nc(CNC(=O)CCCCCCC(=O)NCc6nc7ccc(-c8nc9ccc(N%10CCN(C)CC%10)cc9[nH]8)cc7[nH]6)[nH]c5c4)[nH]c3c2)CC1`, the IC50 in [2], in data set [3], in [4] and in data set [5] was 20 to 90 µM throughout.

Consider `CN(C)CCCNC(=O)c1ccc2nc(-c3ccc4nc(CNC(=O)CCCC(=O)NCc5nc6ccc(-c7nc8ccc(C(=O)NCCCN(C)C)cc8[nH]7)cc6[nH]5)[nH]c4c3)[nH]c2c1`, for which the half-inhibitory concentration (IC50) in data set [2], in [3], in data set [4] and in data set [5] was greater than 240 µM in each case. Further, the Drug uptake entry in data set [6] is “Active”. In addition, the inhibition result in [10] is “Active”.

For the molecule `CN(C)CCCNC(=O)c1ccc2nc(-c3ccc4nc(CNC(=O)CCCCCCCCCCCC(=O)NCc5nc6ccc(-c7nc8ccc(C(=O)NCCCN(C)C)cc8[nH]7)cc6[nH]5)[nH]c4c3)[nH]c2c1`, the IC50 in data set [2] is greater than 240 µM; in [3], greater than 240 µM; in data set [4], greater than 240 µM; in data set [5], greater than 240 µM; in data set [19] it was 0.06 µM. Besides, the Drug uptake result in data set [6] is “Active”. The outcome in data set [8] and in data set [18] was Active. Also, in data set [10], the inhibition entry is “Active”.

Source of the values: ChEMBL document CHEMBL4219185, “DNA sequence-specific ligands. XVII. Synthesis, spectral properties, virological and biochemical studies of fluorescent dimeric bisbenzimidazoles DBA(n)” (Bioorg Med Chem, 2018).
